From ChEMBL document CHEMBL6134781, “In vitro identification of oridonin hybrids as potential anti-TNBC agents inducing cell cycle arrest and apoptosis by regulation of p21, γH2AX and cleaved PARP” (RSC Med Chem, 2024)
Activity calls are given as the source filed them. No cut-off for these calls is given here.

Key:
[1] = Stability in human plasma assessed as half life at 100 uM by LC-MS/MS analysis; type: ADME, cell-free
HCC1937 [2] = assay: Induction of apoptosis in human HCC1937 cells assessed as late apoptotic cells at 1 uM incubated for 24 hrs by Annexin V-FITC/PI staining based flow cytometry (reference value: 1.45 %); type: functional
HCC1806 [3] = assay: Induction of apoptosis in human HCC1806 cells assessed as viable cells at 3 uM incubated for 24 hrs by Annexin V-FITC/PI staining based flow cytometry (reference value: 95.4 %); type: functional; details: read-out: Activity
HCC1937 [4] = assay: Induction of apoptosis in human HCC1937 cells assessed as early apoptotic cells at 1 uM incubated for 24 hrs by Annexin V-FITC/PI staining based flow cytometry (reference value: 0.74 %); type: functional
HCC1806 [5] = assay: Induction of apoptosis in human HCC1806 cells assessed as necrotic cells at 3 uM incubated for 24 hrs by Annexin V-FITC/PI staining based flow cytometry (reference value: 0.049 %); type: functional
HCC1937 [6] = assay: Induction of DNA damage in human HCC1937 cells assessed as increase in gamma-H2AX level incubated for 24 hrs by Western blot analysis; type: functional, cell-based; details: dose 1-3 µM
HCC1806 [7] = assay: Induction of apoptosis in human HCC1806 cells assessed as late apoptotic cells at 1 uM incubated for 24 hrs by Annexin V-FITC/PI staining based flow cytometry (reference value: 1.48 %); type: functional
HCC1806 [8] = assay: Induction of apoptosis in human HCC1806 cells assessed as early apoptotic cells at 1 uM incubated for 24 hrs by Annexin V-FITC/PI staining based flow cytometry (reference value: 3.06 %); type: functional
HCC1806 [9] = assay: Induction of apoptosis in human HCC1806 cells assessed as viable cells at 1 uM incubated for 24 hrs by Annexin V-FITC/PI staining based flow cytometry (reference value: 95.4 %); type: functional; details: read-out: Activity
MDA-MB-468 [10] = assay: Effect on p21 expression in human MDA-MB-468 cells at 1 to 3 uM incubated for 16 hrs by Western blot analysis; type: functional, cell-based; details: dose 1-3 µM
HCC1806 [11] = assay: Induction of DNA damage in human HCC1806 cells assessed as increase in gamma-H2AX level incubated for 24 hrs by Western blot analysis; type: functional, cell-based; details: dose 1-3 µM
MDA-MB-468 [12] = assay: Induction of cell cycle arrest in human MDA-MB-468 cells assessed as accumulation at G2/M phase incubated for 16 hrs by PI staining based flow cytometry; type: functional; details: dose 1-3 µM
MDA-MB-231 [13] = assay: Induction of apoptosis in human MDA-MB-231 cells assessed as viable cells at 3 uM incubated for 16 hrs by Annexin V-FITC/PI staining based flow cytometry (reference value: 89.5 %); type: functional; details: read-out: Activity
MDA-MB-468 [14] = assay: Induction of apoptosis in human MDA-MB-468 cells assessed as increase in cleaved PARP-1 level incubated for 24 hrs by Western blot analysis; type: functional, cell-based; details: dose 1-3 µM
MDA-MB-231 [15] = assay: Induction of cell cycle arrest in human MDA-MB-231 cells assessed as accumulation at G2/M phase incubated for 16 hrs by PI staining based flow cytometry; type: functional; details: dose 1-3 µM
MDA-MB-231 [16] = assay: Induction of cell cycle arrest in human MDA-MB-231 cells assessed as decrease in accumulation at S phase incubated for 16 hrs by PI staining based flow cytometry; type: functional; details: dose 1-3 µM
HCC1937 [17] = assay: Induction of apoptosis in human HCC1937 cells assessed as late apoptotic cells at 3 uM incubated for 24 hrs by Annexin V-FITC/PI staining based flow cytometry (reference value: 1.45 %); type: functional
HCC1806 [18] = assay: Induction of apoptosis in human HCC1806 cells assessed as early apoptotic cells at 3 uM incubated for 24 hrs by Annexin V-FITC/PI staining based flow cytometry (reference value: 3.06 %); type: functional
MDA-MB-231 [19] = assay: Induction of DNA damage in human MDA-MB-231 cells assessed as increase in gamma-H2AX level incubated for 16 hrs by Western blot analysis; type: functional, cell-based; details: dose 1-3 µM
HCC1806 [20] = assay: Cytotoxicity against human HCC1806 cells assessed as inhibition of cell viability incubated for 72 hrs by SRB assay; type: functional, cell-based; details: HCC1806, 72 h
HCC1806 [21] = assay: Induction of cell cycle arrest in human HCC1806 cells assessed as decrease in accumulation at S phase incubated for 16 hrs by PI staining based flow cytometry; type: functional; details: dose 1-3 µM
MDA-MB-468 [22] = assay: Induction of apoptosis in human MDA-MB-468 cells assessed as early apoptotic cells at 3 uM incubated for 24 hrs by Annexin V-FITC/PI staining based flow cytometry (reference value: 3.17 %); type: functional
MDA-MB-468 [23] = assay: Induction of DNA damage in human MDA-MB-468 cells assessed as increase in gamma-H2AX level incubated for 24 hrs by Western blot analysis; type: functional, cell-based; details: dose 1-3 µM
MDA-MB-468 [24] = assay: Induction of apoptosis in human MDA-MB-468 cells assessed as viable cells at 1 uM incubated for 24 hrs by Annexin V-FITC/PI staining based flow cytometry (reference value: 88.9 %); type: functional; details: read-out: Activity
MDA-MB-231 [25] = assay: Induction of apoptosis in human MDA-MB-231 cells assessed as early apoptotic cells at 3 uM incubated for 16 hrs by Annexin V-FITC/PI staining based flow cytometry (reference value: 1.94 %); type: functional
HCC1806 [26] = assay: Induction of apoptosis in human HCC1806 cells assessed as increase in cleaved PARP-1 level incubated for 24 hrs by Western blot analysis; type: functional, cell-based; details: dose 1-3 µM
HCC1937 [27] = assay: Induction of cell cycle arrest in human HCC1937 cells assessed as increase in p21 level incubated for 16 hrs by Western blot analysis; type: functional, cell-based; details: dose 1-3 µM
HCC1937 [28] = assay: Induction of apoptosis in human HCC1937 cells assessed as early apoptotic cells at 3 uM incubated for 24 hrs by Annexin V-FITC/PI staining based flow cytometry (reference value: 0.74 %); type: functional
MDA-MB-231 [29] = assay: Induction of apoptosis in human MDA-MB-231 cells assessed as necrotic cells at 3 uM incubated for 16 hrs by Annexin V-FITC/PI staining based flow cytometry (reference value: 3.89 %); type: functional
HCC1937 [30] = assay: Effect on cell cycle distribution in human HCC1937 cells at 1 to 3 uM incubated for 16 hrs by PI staining based flow cytometry; type: functional; details: dose 1-3 µM
MDA-MB-468 [31] = assay: Induction of apoptosis in human MDA-MB-468 cells assessed as necrotic cells at 3 uM incubated for 24 hrs by Annexin V-FITC/PI staining based flow cytometry (reference value: 4.11 %); type: functional
MDA-MB-468 [32] = assay: Induction of apoptosis in human MDA-MB-468 cells assessed as late apoptotic cells at 3 uM incubated for 24 hrs by Annexin V-FITC/PI staining based flow cytometry (reference value: 3.84 %); type: functional
MDA-MB-231 [33] = assay: Induction of apoptosis in human MDA-MB-231 cells assessed as early apoptotic cells at 1 uM incubated for 16 hrs by Annexin V-FITC/PI staining based flow cytometry (reference value: 1.94 %); type: functional
MDA-MB-231 [34] = assay: Induction of apoptosis in human MDA-MB-231 cells assessed as late apoptotic cells at 1 uM incubated for 16 hrs by Annexin V-FITC/PI staining based flow cytometry (reference value: 4.62 %); type: functional
MDA-MB-231 [35] = assay: Induction of cell cycle arrest in human MDA-MB-231 cells assessed as increase in p21 level incubated for 16 hrs by Western blot analysis; type: functional, cell-based; details: dose 1-3 µM
HCC1937 [36] = assay: Induction of apoptosis in human HCC1937 cells assessed as necrotic cells at 1 uM incubated for 24 hrs by Annexin V-FITC/PI staining based flow cytometry (reference value: 0.58 %); type: functional

`C=C1C(=O)[C@]23[C@H](OC(=O)C45CC6CC(CC(C6)C4)C5)[C@H]1CC[C@H]2[C@@]12CO[C@]3(O)[C@@H](O)[C@@H]1C(C)(C)CC[C@@H]2O` showed a half-life at 100 µM [1] of 2.4 h, an Activity (HCC1937 [2]) of 2.34% and a viability at 3 µM (HCC1806 [3]) of 74.8%. The Activity (HCC1937 [4]) was 1.23%, the Activity (HCC1806 [5]) was 0.091% and the Activity (HCC1937 [6]) was “Dose-dependent-effect”. It also gave an Activity (HCC1806 [7]) of 2.8%, an Activity (HCC1806 [8]) of 4.92% and a viability at 1 µM (HCC1806 [9]) of 92.2%. For the same compound, the Activity (MDA-MB-468 [10]) was “No effect”, the Activity (HCC1806 [11]) was “Dose-dependent-effect” and the Activity (MDA-MB-468 [12]) was “Dose-dependent-effect”. For the same compound, the viability at 3 µM (MDA-MB-231 [13]) was 71.6%, the Activity (MDA-MB-468 [14]) was “Dose-dependent-effect” and the Activity (MDA-MB-231 [15]) was “Dose-dependent-effect”. The Activity (MDA-MB-231 [16]) was “Dose-dependent-effect”, the Activity (HCC1937 [17]) was 24.1% and the Activity (HCC1806 [18]) was 11%. The Activity (MDA-MB-231 [19]) was “Dose-dependent-effect”, the IC50 (HCC1806 [20]) was 1.4 µM and the Activity (HCC1806 [21]) was “Dose-dependent-effect”. For the same compound, the Activity (MDA-MB-468 [22]) was 30%, the Activity (MDA-MB-468 [23]) was “Dose-dependent-effect” and the viability at 1 µM (MDA-MB-468 [24]) was 87.5%. The Activity (MDA-MB-231 [25]) was 3.51%, the Activity (HCC1806 [26]) was “Dose-dependent-effect” and the Activity (HCC1937 [27]) was “Dose-dependent-effect”. The Activity (HCC1937 [28]) was 4.23%, the Activity (MDA-MB-231 [29]) was 4.46% and the Activity (HCC1937 [30]) was “Active”. The Activity (MDA-MB-468 [31]) was 0.44%, the Activity (MDA-MB-468 [32]) was 3.22% and the Activity (MDA-MB-231 [33]) was 4.31%. The Activity (MDA-MB-231 [34]) was 1.92%, the Activity (MDA-MB-231 [35]) was “Dose-dependent-effect” and the Activity (HCC1937 [36]) was 0.33%.
